Measurements from patent US6610675B1 (priority 1980, dated 2003).

Assays:
[1] = system: thymus weight in rats; assay: Thymus inhibition testing (subcutaneous administration); type: in vivo, rat
Procedure: Several further studies were undertaken to determine the effects of selected compounds of the invention on thymi weights in rats when the drugs were systemically administered. In each of these studies, male Sprague-Dawley rats were used. […] On the fifth day (48 hours following the last treatment), the animals were sacrificed and the thymi weights were recorded. […] It is evident that the higher the inhibition of thymus activity at a given dose, the more toxic the compound is.

[2] = system: granulation tissue formation caused by implantation of cotton pellets; assay: Granuloma formation test (local cotton pellet granuloma assay); type: in vivo, rat
Procedure: The test compound was dissolved in acetone and aliquots of varying concentrations were injected into cotton pellets. The pellets were dried and then one pellet was implanted beneath the skin of each test rat. Six days later, the animals were sacrificed and the granulation tissue (granuloma) which formed in and around the implanted pellet was removed, dried and weighed. In addition, the thymi and adrenals were removed and weighed.

[3] = Table VII, 3 mg/kg/day s.c., three days
[4] = Table VII, 10 mg/kg/day s.c., three days
[5] = Table VII, 30 mg/kg/day s.c., three days
[6] = Table VII, 100 mg/kg/day s.c., three days
[7] = Table X, betamethasone 17-valerate = 1
[8] = chloromethyl 11β-hydroxy-17α-isopropoxycarbonyloxyandrost-4-en-3-one-17β-carboxylate = 1
[9] = Table IX, 1 mg/kg/day s.c., three days
[10] = Table IX, 3 mg/kg/day s.c., three days
[11] = Table IX, 10 mg/kg/day s.c., three days
[12] = Table IX, 30 mg/kg/day s.c., three days
[13] = Table VIII, 10 mg/kg/day s.c., three days

With `CC(C)OC(=O)O[C@]1(C(=O)OCCl)CC[C@H]2[C@@H]3CCC4=CC(=O)CC[C@]4(C)[C@H]3[C@@H](O)C[C@@]21C` [chloromethyl 11β-hydroxy-17α-isopropoxycarbonyloxyandrost-4-en-3-one-17β-carboxylate] the Body weight gain [1, 3] was 14.7 ± 0.6 g, the Thymus [1, 3] was 439 ± 18 mg and the “Thymus Inhibition” value [1, 3] was 6.8%. The Body weight gain [1, 4] was 10.2 ± 0.7 g, the Thymus [1, 4] was 386 ± 17 mg and the “Thymus Inhibition” value [1, 4] was 18.0%. For the same compound, the Body weight gain [1, 5] was 6.8 ± 2.1 g, the Thymus [1, 5] was 291 ± 22 mg and the “Thymus Inhibition” value [1, 5] was 38.2%. For the same compound, the Body weight gain [1, 6] was 2.8 ± 1.8 g, the Thymus [1, 6] was 185 ± 17 mg and the “Thymus Inhibition” value [1, 6] was 60.7%. The “Relative Potency (TED40)” value [1, 7] was 0.01, the “Relative Potency (TED50)” value [1, 7] was 0.01 and the TED40 ([1]; Table X, dose required to achieve 40% inhibition of thymi weight, subcutaneous) was 31.0 mg. The TED50 ([1]; Table X, dose required to achieve 50% inhibition of thymi weight, subcutaneous) was 58.5 mg, the “Relative Potency (TED40)” value ([1]; Table XII, hydrocortisone 17-butyrate = 1) was 1/24 and the TED40 ([1]; Table XII, thymus inhibition effect, subcutaneously) was 31.0 mg/kg. For the same compound, the Body wt. gain ([2]; Table IV, 100 μg/pellet) was 34.9 ± 2.7 g, the “Granulation tissue Dry wt.” value ([2]; Table IV, 100 μg/pellet) was 70.0 ± 6.0 mg and the “Granulation tissue Dry wt. Inhibition” value ([2]; Table IV, 100 μg/pellet) was 13.8%. The “Granulation tissue Wet wt.” value ([2]; Table IV, 100 μg/pellet) was 485 ± 36 mg, the “Granulation tissue Wet wt. Inhibition” value ([2]; Table IV, 100 μg/pellet) was 14.3% and the Thymus wt. ([2]; Table IV, 100 μg/pellet) was 452 ± 29 mg. For the same compound, the Body wt. gain ([2]; Table IV, 300 μg/pellet) was 33.9 ± 1.6 g, the “Granulation tissue Dry wt.” value ([2]; Table IV, 300 μg/pellet) was 50.9 ± 2.8 mg and the “Granulation tissue Dry wt. Inhibition” value ([2]; Table IV, 300 μg/pellet) was 37.3%. The “Granulation tissue Wet wt.” value ([2]; Table IV, 300 μg/pellet) was 431 ± 20 mg, the “Granulation tissue Wet wt. Inhibition” value ([2]; Table IV, 300 μg/pellet) was 23.9% and the Thymus wt. ([2]; Table IV, 300 μg/pellet) was 469 ± 25 mg. The Body wt. gain ([2]; Table IV, 1000 μg/pellet) was 34.0 ± 2.6 g, the “Granulation tissue Dry wt.” value ([2]; Table IV, 1000 μg/pellet) was 24.1 ± 2.7 mg and the “Granulation tissue Dry wt. Inhibition” value ([2]; Table IV, 1000 μg/pellet) was 70.3%. The “Granulation tissue Wet wt.” value ([2]; Table IV, 1000 μg/pellet) was 305 ± 16 mg, the “Granulation tissue Wet wt. Inhibition” value ([2]; Table IV, 1000 μg/pellet) was 46.1% and the Thymus wt. ([2]; Table IV, 1000 μg/pellet) was 464 ± 30 mg. For the same compound, the Body wt. gain ([2]; Table IV, 3000 μg/pellet) was 32.4 ± 2.3 g, the “Granulation tissue Dry wt.” value ([2]; Table IV, 3000 μg/pellet) was 20.3 ± 1.3 mg and the “Granulation tissue Dry wt. Inhibition” value ([2]; Table IV, 3000 μg/pellet) was 75.0%. The “Granulation tissue Wet wt.” value ([2]; Table IV, 3000 μg/pellet) was 292 ± 7 mg, the “Granulation tissue Wet wt. Inhibition” value ([2]; Table IV, 3000 μg/pellet) was 48.4% and the Thymus wt. ([2]; Table IV, 3000 μg/pellet) was 459 ± 24 mg. The ED50 ([2]; Table XII, anti-inflammatory effect in cotton pellet granuloma) was 460 μg/pellet, the “Relative potency (ED40)” value [2, 8] was 1 and the “Relative potency (ED60)” value [2, 8] was 1. The ED40 ([2]; dose causing 40% inhibition of granulation tissue weight) was 307 μg/pellet, the ED50 ([2]; dose causing 50% inhibition of granulation tissue weight) was 460 μg/pellet and the ED60 ([2]; dose causing 60% inhibition of granulation tissue weight) was 690 μg/pellet.
`CCOC(=O)O[C@]1(C(=O)OCCl)[C@H](C)C[C@H]2[C@@H]3CCC4=CC(=O)C=C[C@]4(C)[C@@]3(F)C(=O)C[C@@]21C` [chloromethyl 17α-ethoxycarbonyloxy-9α-fluoro-16α-methylandrosta-1,4-dien-3,11-dione-17β-carboxylate] was tested, and the Body wt. gain ([2]; Table V-b, 1 μg/pellet) was 23.7 ± 1.5 g, the “Dry granulation Tissue” value ([2]; Table V-b, 1 μg/pellet) was 55.3 ± 2.6 mg and the “Dry granulation Tissue Inhibition” value ([2]; Table V-b, 1 μg/pellet) was 17.7%. The Thymus wt. ([2]; Table V-b, 1 μg/pellet) was 459 ± 41 mg, the Body wt. gain ([2]; Table V-b, 3 μg/pellet) was 25.6 ± 1.2 g and the “Dry granulation Tissue” value ([2]; Table V-b, 3 μg/pellet) was 51.6 ± 5.9 mg. The “Dry granulation Tissue Inhibition” value ([2]; Table V-b, 3 μg/pellet) was 23.2%, the Thymus wt. ([2]; Table V-b, 3 μg/pellet) was 467 ± 21 mg and the Body wt. gain ([2]; Table V-b, 10 μg/pellet) was 26.5 ± 2.5 g. For the same compound, the “Dry granulation Tissue” value ([2]; Table V-b, 10 μg/pellet) was 41.5 ± 4.7 mg, the “Dry granulation Tissue Inhibition” value ([2]; Table V-b, 10 μg/pellet) was 38.2% and the Thymus wt. ([2]; Table V-b, 10 μg/pellet) was 544 ± 31 mg. The Body wt. gain ([2]; Table V-b, 30 μg/pellet) was 20.3 ± 0.9 g, the “Dry granulation Tissue” value ([2]; Table V-b, 30 μg/pellet) was 39.9 ± 3.6 mg and the “Dry granulation Tissue Inhibition” value ([2]; Table V-b, 30 μg/pellet) was 40.6%. The Thymus wt. ([2]; Table V-b, 30 μg/pellet) was 463 ± 24 mg.
With `CCCCCOC(=O)O[C@]1(C(=O)OCCl)[C@H](C)C[C@H]2[C@@H]3CCC4=CC(=O)C=C[C@]4(C)[C@@]3(F)[C@@H](O)C[C@@]21C` [chloromethyl 9β-fluoro-11β-hydroxy-16α-methyl-17α-pentyloxycarbonyloxyandrosta-1,4-dien-3-one-17β-carboxylate] the Body weight gain [1, 9] was 18.0 ± 1.5 g, the Thymus wt. [1, 9] was 387 ± 23 mg and the “Thymus wt. Decrease” value [1, 9] was 9.2%. For the same compound, the Body weight gain [1, 10] was 15.6 ± 1.3 g, the Thymus wt. [1, 10] was 347 ± 15 mg and the “Thymus wt. Decrease” value [1, 10] was 18.5%. For the same compound, the Body weight gain [1, 11] was 17.4 ± 1.5 g, the Thymus wt. [1, 11] was 357 ± 22 mg and the “Thymus wt. Decrease” value [1, 11] was 16.2%. For the same compound, the Body weight gain [1, 12] was 13.5 ± 1.0 g, the Thymus wt. [1, 12] was 335 ± 17 mg and the “Thymus wt. Decrease” value [1, 12] was 21.4%.
With `CC(C)OC(=O)O[C@]1(C(=O)OCCl)[C@@H](C)C[C@H]2[C@@H]3CCC4=CC(=O)C=C[C@]4(C)[C@@]3(F)C(=O)C[C@@]21C` [chloromethyl 9α-fluoro-17α-isopropoxycarbonyloxy-16β-methylandrosta-1,4-dien-3,11-dione-17β-carboxylate] the Body wt. gain ([2]; Table V-b, 1 μg/pellet) was 28.9 ± 1.1 g, the “Dry granulation Tissue” value ([2]; Table V-b, 1 μg/pellet) was 59.1 ± 5.8 mg and the “Dry granulation Tissue Inhibition” value ([2]; Table V-b, 1 μg/pellet) was 12.1%. For the same compound, the Thymus wt. ([2]; Table V-b, 1 μg/pellet) was 441 ± 24 mg, the Body wt. gain ([2]; Table V-b, 3 μg/pellet) was 25.8 ± 0.9 g and the “Dry granulation Tissue” value ([2]; Table V-b, 3 μg/pellet) was 49.4 ± 3.7 mg. The “Dry granulation Tissue Inhibition” value ([2]; Table V-b, 3 μg/pellet) was 26.5%, the Thymus wt. ([2]; Table V-b, 3 μg/pellet) was 519 ± 31 mg and the Body wt. gain ([2]; Table V-b, 10 μg/pellet) was 28.4 ± 0.8 g. For the same compound, the “Dry granulation Tissue” value ([2]; Table V-b, 10 μg/pellet) was 51.1 ± 5.8 mg, the “Dry granulation Tissue Inhibition” value ([2]; Table V-b, 10 μg/pellet) was 24.0% and the Thymus wt. ([2]; Table V-b, 10 μg/pellet) was 547 ± 35 mg. For the same compound, the Body wt. gain ([2]; Table V-b, 30 μg/pellet) was 27.4 ± 0.9 g, the “Dry granulation Tissue” value ([2]; Table V-b, 30 μg/pellet) was 40.6 ± 3.6 mg and the “Dry granulation Tissue Inhibition” value ([2]; Table V-b, 30 μg/pellet) was 39.6%. It also gave a Thymus wt. ([2]; Table V-b, 30 μg/pellet) of 536 ± 24 mg.
In the case of `CC(C)OC(=O)O[C@]1(C(=O)OCCl)[C@H](C)C[C@H]2[C@@H]3CCC4=CC(=O)C=C[C@]4(C)[C@@]3(F)[C@@H](O)C[C@@]21C` [chloromethyl 9α-fluoro-11β-hydroxy-17α-isopropoxycarbonyloxy-16α-methylandrosta-1,4-dien-3-one-17β-carboxylate], the Body weight gain [1, 13] was 2.7 ± 1.9 g, the Thymus wt. [1, 13] was 234 ± 31 mg and the “Thymus wt. Inhibition” value [1, 13] was 57.5%.
